Reference: patent US8063048B2, “Acetylenyl-pyrazolo-pyrimidine derivatives” (Hoffmann-La Roche Inc., priority 2005, dated 2011)

| SMILES | melting point |
| --- | --- |
| Nc1ncc(C#Cc2cnc3c(C(F)(F)F)cc(-c4ccc(C(F)(F)F)cc4)nn23)cn1 [Example 243, 5-[8-Trifluoromethyl-6-(4-trifluoromethyl-phenyl)-imidazo[1,2-b]pyridazin-3-ylethynyl]-pyrimidin-2-ylamine] | 220 to 221 °C |
| CC(=O)N(C(C)=O)c1ncc(C#Cc2cnn3c(C(F)(F)F)cc(-c4ccc(C(F)(F)F)cc4)nc23)cn1 [Example 244, N-Acetyl-N-{5-[7-trifluoromethyl-5-(4-trifluoromethyl-phenyl)-pyrazolo[1,5-a]pyrimidin-3-ylethynyl]-pyrimidin-2-yl}-acetamide] | 253 to 254 °C |
| CC(=O)Nc1ncc(C#Cc2cnn3c(C(F)(F)F)cc(-c4ccc(C(F)(F)F)cc4)nc23)cn1 [Example 245, N-{5-[7-Trifluoromethyl-5-(4-trifluoromethyl-phenyl)-pyrazolo[1,5-a]pyrimidin-3-ylethynyl]-pyrimidin-2-yl}-acetamide] | 293 °C |
| Nc1ccc(C#Cc2cnn3c(C(F)(F)F)cc(-c4ccc(C(F)(F)F)cc4)nc23)nn1 [Example 246, 6-[7-Trifluoromethyl-5-(4-trifluoromethyl-phenyl)-pyrazolo[1,5-a]pyrimidin-3-ylethynyl]-pyridazin-3-ylamine] | 214 to 216 °C |
| Nc1ccc(C#Cc2cnn3c(C(F)(F)F)cc(-c4ccc(Cl)cc4)nc23)nn1 [Example 247, 6-[5-(4-Chloro-phenyl)-7-trifluoromethyl-pyrazolo[1,5-a]pyrimidin-3-ylethynyl]-pyridazin-3-ylamine] | 247 to 248 °C |
| CN1CCN(S(=O)(=O)c2ccc(C#Cc3cnn4c(C(F)F)cc(-c5cccc(C(F)(F)F)c5)nc34)s2)CC1 [Example 248, 7-Difluoromethyl-3-[5-(4-methyl-piperazine-1-sulfonyl)-thiophen-2-ylethynyl]-5-(3-trifluoromethyl-phenyl)-pyrazolo[1,5-a]pyrimidine] | 214 °C |
| CN1CCN(S(=O)(=O)c2ccc(C#Cc3cnn4c(C(F)(F)F)cc(-c5cccc(C(F)(F)F)c5)nc34)s2)CC1 [Example 249, 3-[5-(4-Methyl-piperazine-1-sulfonyl)-thiophen-2-ylethynyl]-7-trifluoromethyl-5-(3-trifluoromethyl-phenyl)-pyrazolo[1,5-a]pyrimidine] | 191 °C |
| CN(C)CCNS(=O)(=O)c1ccc(C#Cc2cnn3c(C(F)F)cc(-c4cccc(C(F)(F)F)c4)nc23)s1 [Example 250, 5-[7-Difluoromethyl-5-(3-trifluoromethyl-phenyl)-pyrazolo[1,5-a]pyrimidin-3-ylethynyl]-thiophene-2-sulfonic acid (2-dimethylamino-ethyl)-amide] | 170 °C |
| CN(C)CCNS(=O)(=O)c1ccc(C#Cc2cnn3c(C(F)(F)F)cc(-c4cccc(C(F)(F)F)c4)nc23)s1 [Example 251, 5-[7-Trifluoromethyl-5-(3-trifluoromethyl-phenyl)-pyrazolo[1,5-a]pyrimidin-3-ylethynyl]-thiophene-2-sulfonic acid (2-dimethylamino-ethyl)-amide] | 197 °C |
| CN1CCN(S(=O)(=O)c2ccc(C#Cc3cnn4c(C(F)F)cc(-c5ccc(C(F)(F)F)cc5)nc34)s2)CC1 [Example 252, 7-Difluoromethyl-3-[5-(4-methyl-piperazine-1-sulfonyl)-thiophen-2-ylethynyl]-5-(4-trifluoromethyl-phenyl)-pyrazolo[1,5-a]pyrimidine] | 226 °C |
| CN(C)CCNS(=O)(=O)c1ccc(C#Cc2cnn3c(C(F)F)cc(-c4ccc(C(F)(F)F)cc4)nc23)s1 [Example 253, 5-[7-Difluoromethyl-5-(4-trifluoromethyl-phenyl)-pyrazolo[1,5-a]pyrimidin-3-ylethynyl]-thiophene-2-sulfonic acid (2-dimethylamino-ethyl)-amide] | 132 °C |
| Nc1ccc(C#Cc2cnn3c(C(F)F)cc(-c4cccc(C(F)(F)F)c4)nc23)cn1 [Example 254, 5-[7-Difluoromethyl-5-(3-trifluoromethyl-phenyl)-pyrazolo[1,5-a]pyrimidin-3-ylethynyl]-pyridin-2-ylamine] | 164 °C |
